This assay deals with HIV. The experiment in a line: MT4 assay: antiviral HIV activity (cell protection, cell titer glo readout at 96 hours). In kind it is cell-based. To be noted: Human immunodeficiency virus 1, MT4, 96 h, MT4 cells, cell titer glo readout at 96 hours, 10 point dose response; read-out: HIV MT4 Assay IC50. Summed up: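 MT-4 cells infected with HIV, with inhibition readout by CellTiter-Glo luminescence at 96 h relative to no-compound control. Cytotoxicity measured in parallel under the same conditions. IC50 from a 10-point, 3-4-fold dilution series spanning >1000-fold, fitted with a four-parameter logistic equation.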
A general note: ATP-based viability assays read luminescence as a measure of living cells.

As usually defined, the IC50 is the concentration that inhibits the measured activity by half. Consider `Cc1nc2c(cc(-c3nc(N4CCC(N(C)C)CC4)ns3)n2C)c(-c2cc(F)c3c(c2C)CCCO3)c1[C@H](OC(C)(C)C)C(=O)O` [Example 396], for which the IC50 is 15.5 nM.
Next, `Cc1nc2c(cc(-c3ccnc(N4CCCN(C5CCOCC5)CC4)c3)n2C)c(-c2cc(F)c3c(c2C)CCCO3)c1[C@H](OC(C)(C)C)C(=O)O` (atropisomer, axis not shown) [Example 113]: 20 nM; `Cc1nc2c(cc(-c3nc(N4CCN(C(=O)N5CCOCC5)CC4)ns3)n2C)c(-c2cc(F)c3c(c2C)CCCO3)c1[C@H](OC(C)(C)C)C(=O)O` [Example 388]: 9.3 nM; `Cc1nc2c(cc(-c3nc(N4CCN(S(=O)(=O)C5CCOCC5)CC4)ns3)n2C)c(-c2cc(F)c3c(c2C)CCCO3)c1[C@H](OC(C)(C)C)C(=O)O` [Example 393]: 4.2 nM.
For `Cc1nc2c(cc(C(=O)Nc3ccc4c(cnn4C)c3)n2C)c(-c2cc(F)c3c(c2C)CCCO3)c1[C@H](OC(C)(C)C)C(=O)O` [Example 163], the IC50 is 43 nM.
In the case of `Cc1nc2c(cc(-c3ccnc(N4CCCN(C(=O)C5CCCC5)CC4)c3)n2C)c(-c2cc(F)c3c(c2C)CCCO3)c1[C@H](OC(C)(C)C)C(=O)O` (atropisomer, axis not shown) [Example 101], the IC50 worked out at 67.4 nM.
In the case of `Cc1nc2c(cc(/C=C/C(=O)NCCC(C)(C)C)n2C)c(-c2cc(F)c3c(c2C)CCCO3)c1[C@H](OC(C)(C)C)C(=O)O` [Example 416], the 50% inhibitory concentration (IC50) worked out at 26.7 nM.
As for `Cc1nc2c(cc(-c3ccnc(-c4ccc5c(c4)NCCO5)c3)n2C)c(-c2cc(F)c3c(c2C)CCCO3)c1[C@H](OC(C)(C)C)C(=O)O` (atropisomer, axis not shown) [Example 50], the IC50 is 8.7 nM.
For `Cc1nc2c(cc(-c3nc(N4CCN(CC5CCOCC5)CC4)ns3)n2C)c(-c2cc(F)c3c(c2C)CCCO3)c1[C@H](OC(C)(C)C)C(=O)O` [Example 390], the IC50 turned out to be 5.4 nM.
Regarding `Cc1nc2c(cc(-c3ccnc(-c4cccnc4)c3)n2C)c(-c2cc(F)c3c(c2C)CCCO3)c1[C@H](OC(C)(C)C)C(=O)O` (atropisomer, axis not shown) [Example 6, (2S)-2-(tert-butoxy)-2-[4-(8-fluoro-5-methyl-3,4-dihydro-2H-1-benzopyran-6-yl)-1,6-dimethyl-2-[2-(pyridin-3-yl)pyridin-4-yl]-1H-pyrrolo[2,3-b]pyridin-5-yl]acetic acid], the IC50 is 14.8 nM.
For `Cc1nc2c(cc(-c3cc(NCCN4CCOCC4)ncn3)n2C)c(-c2cc(F)c3c(c2C)CCCO3)c1[C@H](OC(C)(C)C)C(=O)O` [Example 365], the IC50 is 86.7 nM.
As to `Cc1nc2c(cc(-c3ccnc(-c4ccc5ccccc5c4)c3)n2C)c(-c2cc(F)c3c(c2C)CCCO3)c1[C@H](OC(C)(C)C)C(=O)O` (atropisomer, axis not shown) [Example 39], the half-inhibitory concentration (IC50) came out at 17.3 nM.
Turning to `Cc1nc2c(cc(-c3ccnc(-c4cnc5c(cnn5C)c4)c3)n2C)c(-c2ccc3c(c2C)CCCO3)c1[C@H](OC(C)(C)C)C(=O)O` (atropisomer, axis not shown) [Example 4, (2S)-2-(tert-butoxy)-2-[1,6-dimethyl-2-(2-{1-methyl-1H-pyrazolo[3,4-b]pyridin-5-yl}pyridin-4-yl)-4-(5-methyl-3,4-dihydro-2H-1-benzopyran-6-yl)-1H-pyrrolo[2,3-b]pyridin-5-yl]acetic acid], the IC50 stood at 1.6 nM.
For the molecule `Cc1nc2c(cc(C(=O)N3CCN(CC(=O)N(C)c4ccccc4)CC3)n2C)c(-c2cc(F)c3c(c2C)CCCO3)c1[C@H](OC(C)(C)C)C(=O)O` [Example 219], the 50% inhibitory concentration (IC50) is 807 nM.
For the molecule `Cc1nc2c(cc(C(=O)N3CCOC(C)(C(=O)NC4CCCC4)C3)n2C)c(-c2cc(F)c3c(c2C)CCCO3)c1[C@H](OC(C)(C)C)C(=O)O` (stereo partly drawn) [Example 205], the IC50 came out at 373 nM.
Consider `Cc1nc2c(cc(/C=C/C(=O)NCCO)n2C)c(-c2cc(F)c3c(c2C)CCCO3)c1[C@H](OC(C)(C)C)C(=O)O` [Example 418], for which the IC50 turned out to be 3440 nM.
In the case of `Cc1nc2c(cc(-c3nnc(N4CCN(C5CCOCC5)CC4)s3)n2C)c(-c2cc(F)c3c(c2C)CCCO3)c1[C@H](OC(C)(C)C)C(=O)O` [Example 376] it was 14.4 nM; in that of `Cc1nc2c(cc(-c3ccnc(N4CCCN(C5COC5)CC4)c3)n2C)c(-c2ccccc2)c1[C@H](OC(C)(C)C)C(=O)O` [Example 435], 3010 nM.
In the case of `Cc1nc2c(cc(-c3nc(N4CCN(CCN5CCOCC5)CC4)ns3)n2C)c(-c2cc(F)c3c(c2C)CCCO3)c1[C@H](OC(C)(C)C)C(=O)O` [Example 405], the IC50 was determined as 2.7 nM.
With `Cc1nc2c(cc(-c3ccnc(-c4cccc5c4cnn5C)c3)n2C)c(-c2cc(F)c3c(c2C)CCCO3)c1[C@H](OC(C)(C)C)C(=O)O` (atropisomer, axis not shown) [Example 58], the IC50 came to 5.4 nM.
In the case of `COc1ccc([C@@H](C)NC(=O)c2cc3c(-c4cc(F)c5c(c4C)CCCO5)c([C@H](OC(C)(C)C)C(=O)O)c(C)nc3n2C)cc1` [Example 216] it was 41.3 nM; in that of `Cc1nc2c(cc(-c3nc(-c4ccc5c(cnn5C)c4)ns3)n2C)c(-c2cc(F)c3c(c2C)CCCO3)c1[C@H](OC(C)(C)C)C(=O)O` (atropisomer, axis not shown; (M)) [Example 355, (2S)(M)-2-(tert-butoxy)-2-(-4-(8-fluoro-5-methylchroman-6-yl)-1,6-dimethyl-2-(3-(1-methyl-1H-indazol-5-yl)-1,2,4-thiadiazol-5-yl)-1H-pyrrolo[2,3-b]pyridin-5-yl)acetic acid], 4.7 nM; in that of `Cc1nc2c(cc(-c3ccnc(-c4ccc5c(cnn5C)c4)c3)n2C)c(-c2ccc3c(c2C)NCCO3)c1[C@H](OC(C)(C)C)C(=O)O` [Example 423], 1.8 nM.
Turning to `Cc1nc2c(cc(-c3ccc4c(cnn4C)c3)n2C)c(-c2cc(F)c3c(c2C)CCCO3)c1[C@H](OC(C)(C)C)C(=O)O` (atropisomer, axis not shown) [Example 134], the IC50 turned out to be 39.2 nM.
As to `Cc1nc2c(cc(CCc3ccccc3)n2C)c(-c2cc(F)c3c(c2C)CCCO3)c1[C@H](OC(C)(C)C)C(=O)O` (atropisomer, axis not shown; (M)) [Example 282, (2S)(M)-2-(tert-butoxy)-2-(-4-(8-fluoro-5-methylchroman-6-yl)-1,6-dimethyl-2-phenethyl-1H-pyrrolo[2,3-b]pyridin-5-yl)acetic acid], the IC50 stood at 56.8 nM.
On to `Cc1nc2c(cc(-c3nnc(N4CCCC4)o3)n2C)c(-c2cc(F)c3c(c2C)CCCO3)c1[C@H](OC(C)(C)C)C(=O)O` [Example 311], for which the half-inhibitory concentration (IC50) is 4.5 nM.
In the case of `Cc1nc2c(cc(-c3ccnc(N4CC5CN(C6COC6)CC5C4)c3)n2C)c(-c2cc(F)c3c(c2C)CCCO3)c1[C@H](OC(C)(C)C)C(=O)O` (stereo partly drawn) [Example 121] it was 15 nM; in that of `Cc1nc2c(cc(-c3nnc(N4C[C@H](C)O[C@@H](C)C4)o3)n2C)c(-c2cc(F)c3c(c2C)CCCO3)c1[C@H](OC(C)(C)C)C(=O)O` [Example 351], 2 nM.
As to `Cc1nc2c(cc(C(=O)N3CCN(C4CCOCC4)C[C@H]3C)n2C)c(-c2cc(F)c3c(c2C)CCCO3)c1[C@H](OC(C)(C)C)C(=O)O` [Example 223], the IC50 came to 121 nM.
Next, `Cc1nc2c(cc(-c3ccnc(C4=CCCCC4)c3)n2C)c(-c2cc(F)c3c(c2C)CCCO3)c1[C@H](OC(C)(C)C)C(=O)O` (atropisomer, axis not shown) [Example 32]: 34.5 nM; `Cc1nc2c(cc(-c3ccnc(N4CCN(C(=O)N(C)C)CC4)c3)n2C)c(-c2cc(F)c3c(c2C)CCCO3)c1[C@H](OC(C)(C)C)C(=O)O` (atropisomer, axis not shown) [Example 115]: 15.6 nM.
`COc1ncc(-c2cc(-c3cc4c(-c5cc(F)c6c(c5C)CCCO6)c([C@H](OC(C)(C)C)C(=O)O)c(C)nc4n3C)ccn2)cn1` (atropisomer, axis not shown) [Example 52]: the IC50 amounted to 13.9 nM.
Next, `COCCNC(=O)c1cc2c(-c3cc(F)c4c(c3C)CCCO4)c([C@H](OC(C)(C)C)C(=O)O)c(C)nc2n1C` [Example 231]: 48.7 nM.
On to `Cc1nc2c(cc(-c3ccnc(C(=O)NCCN4CCCC4=O)c3)n2C)c(-c2cc(F)c3c(c2C)CCCO3)c1[C@H](OC(C)(C)C)C(=O)O` (atropisomer, axis not shown) [Example 149], for which the half-maximal inhibitory concentration (IC50) was found to be 219 nM.
Regarding `Cc1nc2c(cc(C(=O)NCCC(C)(C)C)n2C)c(-c2cc(F)c3c(c2C)CCCO3)c1[C@H](OC(C)(C)C)C(=O)O` [Example 232], the IC50 was found to be 2 nM.
In the case of `Cc1nc2c(cc(-c3ccnc(N4CCN(S(C)(=O)=O)CC4)c3)n2C)c(-c2cc(F)c3c(c2C)CCCO3)c1[C@H](OC(C)(C)C)C(=O)O` (atropisomer, axis not shown) [Example 92] it was 19.6 nM; in that of `Cc1nc2c(cc(-c3ccnc(C#CCN4CCCC4)c3)n2C)c(-c2cc(F)c3c(c2C)CCCO3)c1[C@H](OC(C)(C)C)C(=O)O` (atropisomer, axis not shown) [Example 157], 30 nM; in that of `Cc1nc2c(cc(-c3nc(N4CCC(C)CC4)ns3)n2C)c(-c2cc(F)c3c(c2C)CCCO3)c1[C@H](OC(C)(C)C)C(=O)O` [Example 372], 36.2 nM.
With `Cc1nc2c(cc(C(=O)NCc3ccccn3)n2C)c(-c2cc(F)c3c(c2C)CCCO3)c1[C@H](OC(C)(C)C)C(=O)O` [Example 267], the IC50 is 26.1 nM.
As to `Cc1nc2c(cc(-c3csc(N4CCN(C5CCOCC5)CC4)n3)n2C)c(-c2cc(F)c3c(c2C)CCCO3)c1[C@H](OC(C)(C)C)C(=O)O` [Example 408], the IC50 stood at 2.7 nM.
As for `Cc1nc2c(cc(-c3ccnc(-c4ccc5c(c4)nnn5C)c3)n2C)c(-c2cc(F)c3c(c2C)CCCO3)c1[C@H](OC(C)(C)C)C(=O)O` (atropisomer, axis not shown) [Example 60], the 50% inhibitory concentration (IC50) is 3.7 nM.
With `Cc1nc2c(cc(-c3ccnc(-c4ccc5cnn(C)c5c4)c3)n2C)c(-c2cc(F)c3c(c2C)CCCO3)c1[C@H](OC(C)(C)C)C(=O)O` (atropisomer, axis not shown) [Example 41], the IC50 was determined as 4.6 nM.

For the origin of these results see patent US20150191469A1, “COMPOUNDS AND METHODS FOR TREATING HIV” (priority 2012, published 2015).
